Test in all cases: NCI tumour cell line growth inhibition, 48 h
Assay [1] concerns SK-MEL-5 melanoma.
The subject of assay [2] is CAKI-1 renal.
For assay [3], the system named is BT-549 breast.
The subject of assay [4] is U251 CNS.
Assay [5] deals with MDA-MB-231 breast.
In assay [6] the test system is CCRF-CEM leukemia.
Assay [7] has as its system UO-31 renal.
Assay [8] has as its system MOLT-4 leukemia.
For assay [9], the system named is MCF7 breast.
Assay [10] relates to SR leukemia.

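Interpolation was linear, between the two tested concentrations surrounding the appropriate level; five concentrations were tested over 48 hours in 96-well plates. GI50 is the concentration that inhibits growth by half. The concentration for full growth arrest is given as TGI.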 Some results are limits rather than exact numbers.

Take `CC(=O)O[C@H]1CCC2[C@@H]3CC[C@]4(C)CC(=O)C=C[C@]4(C)C3CC[C@@]21C` (stereo partly drawn): the TGI is 28.3 µM in assay [1]; greater than 100 µM in assay [2]; 32.1 µM in assay [3]; 33.1 µM in assay [4]; 77.9 µM in assay [5]; 57.9 µM in assay [6]. In addition, the TGI is greater than 100 µM in assay [7] and 47.9 µM in [8].

Turning to `NC(=O)c1cc(Cl)ccc1NC(=O)/C=C/c1ccccc1`, the GI50 is 0.787 µM in assay [1]; 1.78 µM in [9]; 4.66 µM in assay [3]; 2.95 µM in assay [4]; 2.6 µM in assay [5]; 2.96 µM in [6]. The GI50 in assay [7] is 10.1 µM; in assay [8], 3.44 µM. For the same compound, the TGI was greater than 100 µM in assay [9]; greater than 100 µM in assay [3]; greater than 35.4 µM in assay [4]; greater than 100 µM in [5]; greater than 100 µM in assay [6]; greater than 100 µM in assay [7]. The compound further showed a TGI in assay [8] greater than 100 µM.

Take `CN1CCc2nc(N)nc(-c3nc(N)nc4c3CN(C)CC4)c2C1`: the TGI in assay [1], in assay [9], in assay [2], in [3], in [4] and in [5] was greater than 100 µM throughout. Besides, the TGI in [7], in assay [10] and in [8] was greater than 100 µM throughout.

Turning to `C=C1C(=O)O[C@H]2[C@H]1CC/C(COC(=O)NCCCCNC(=O)OC/C1=C/CC[C@@]3(C)O[C@H]3[C@H]3OC(=O)C(=C)[C@@H]3CC1)=C\CC[C@@]1(C)O[C@@H]21`, the GI50 is 3.33 µM in assay [1]; 10.8 µM in assay [2]; 1.6 µM in assay [3]; 2.94 µM in assay [4]; 1.53 µM in assay [5]; 0.272 µM in [6]. The GI50 in assay [7] was 7.61 µM; in [10], 0.549 µM; in [8], 1.47 µM. The TGI in assay [1] came out at 11.8 µM; in [2], 23 µM; in assay [3], 3.63 µM; in [4], 9.83 µM; in assay [5], 3.24 µM; in [6], 0.845 µM. The TGI in [7] was 20.9 µM; in assay [10] it was 3.51 µM; in [8], 4.15 µM.

Take `Cc1cc(NC(=S)SCc2ccc(F)cc2)c([N+](=O)[O-])cc1C`: the TGI was 26 µM in [1]; greater than 100 µM in assay [9]; greater than 100 µM in assay [2]; 59.1 µM in [3]; 57.5 µM in [4]; 34.6 µM in [5]. For the same compound, the TGI in [10] came out at 43.9 µM; in assay [8] it was 16.9 µM.

For `CC12OC(C(=O)C13CC3)C1C(=O)c3ccc4c(ccc5ccccc54)c3C(=O)C12` (stereo not drawn), the GI50 in assay [9] is 23.1 µM; in [2], 19.7 µM; in assay [3] it was 29.6 µM; in [5], 13 µM; in assay [6], 29.5 µM; in assay [7] it was 77.3 µM. Also, the GI50 in assay [8] was 28.9 µM. Also, the TGI is greater than 100 µM in [9]; 41.8 µM in assay [2]; 55.9 µM in assay [3]; 77.9 µM in [5]; greater than 100 µM in assay [6]; greater than 100 µM in assay [7]. In assay [8], this compound showed a TGI greater than 100 µM.

Take `COc1ccc(-c2cc(-c3cc(C)cc(Br)c3O)no2)cc1`: the TGI in assay [1] is 24.3 µM; in assay [9], 42.4 µM; in assay [2], 24 µM; in assay [3], 57.1 µM; in assay [4], 33.5 µM; in [5] it was 64.6 µM. In addition, the TGI in [7] was 31.9 µM; in assay [10], greater than 100 µM; in [8] it was greater than 100 µM.

Turning to `O=C1/C(=C(/c2ccccc2)N2CCOCC2)Cc2ccccc21`, the GI50 is 2.25 µM in assay [1]; 1.54 µM in [9]; 0.186 µM in [2]; 1.26 µM in [3]; 1.65 µM in assay [4]; 2.3 µM in assay [5]. Besides, the results for the GI50 in assay [6], in assay [7] and in [8] were 0.467 µM, 0.455 µM and greater than 100 µM, respectively. Besides, the TGI came to 6.73 µM in assay [1]; 7.38 µM in assay [9]; 2.08 µM in [2]; 3.2 µM in assay [3]; 4.57 µM in [4]; 5.48 µM in [5]. Moreover, the TGI in [6] was 2.67 µM; in [7] it was 1.08 µM; in [8] it was greater than 100 µM.

For the compound `COc1ccc(-c2nc3ccccn3c2/C=C/C(=O)c2cc(OC)c(OC)c(OC)c2)cc1OC`, the GI50 in assay [1] was 1.5 µM; in [9], 2.76 µM; in [2], 1.39 µM; in assay [3], 0.899 µM; in assay [4], 2.91 µM; in assay [5], 3.28 µM. Moreover, the GI50 in assay [6] is 1.54 µM; in assay [7], 0.552 µM. Also, the TGI in [1] is 2.92 µM; in assay [9], greater than 100 µM; in [2], 20.2 µM; in assay [3] it was 3.2 µM; in assay [4] it was 65.5 µM; in assay [5], 45 µM. Besides, the TGI was greater than 100 µM in assay [6] and 12.7 µM in assay [7].

As to `C=C(C)[C@@H]1CC[C@]2(CO)CC[C@]3(C)[C@H](CC[C@@H]4[C@@]5(C)C=C(C#N)C(=O)C(C)(C)[C@@H]5CC[C@]43C)[C@@H]12`, the GI50 in [1] is 1.2 µM; in assay [9] it was 0.34 µM; in [2], 2.82 µM; in [3] it was 2.13 µM; in [4], 1.36 µM; in [5] it was 1.56 µM. The results for the GI50 in assay [6], in assay [7] and in assay [10] were 2.11 µM, 1.05 µM and 1.53 µM, respectively. Besides, the TGI in [1] worked out at 2.52 µM; in [9], 7.66 µM; in assay [2], 14.4 µM; in [3], 6.18 µM; in assay [4], 2.8 µM; in assay [5], 4.82 µM. For the same compound, the TGI in assay [6] is 8.7 µM; in assay [7], 2.77 µM; in [10] it was 6.01 µM.

(Values after PubChem BioAssay (NCI).)
